Read-outs that look alike come from different tables or passages of the source.
What was measured:
[1] = cited from earlier work
[2] = cited from earlier work; remark: listed apart in the source
[3] = system: black cutworm larvae; experiment: Example 2: stand reduction of corn by black cutworm, tub test; assay type: in vivo
Description: (§1) A lambda-cyhalothrin seed treatment formulation was prepared from the WARRIOR T insecticide and corn seed was prepared and treated as described in Example 1, except that the treatment levels were 88, 185 and 381 gm active ingredient/100 kg seed. Treated and untreated seeds were planted and cultivated as described as described in Example 1. Again, FORCE 3GR was applied either in-furrow or incorporated into a 5 inch band on the soil surface at the time of planting. The tubs were overhead irrigated until the plants were infested with black cutworm larvae.
(§2) The corn plants were infested at 12 DAP, as described in Example 1. Plants were rated at 10 days after infestation (DAI) for the number of cut plants. The percent stand reduction due to plant cutting was calculated by dividing the number of cut plants into the number of plants present at infestation.

[4] = system: black cutworm larvae; experiment: Example 4: stand reduction of corn by black cutworm in three soil types; assay type: in vivo; settings: seed treatment 250 gm AI/100 kg of seed
Description: as §1, with “from” for “from the”, “level was 250” for “levels were 88, 185 and 381”, “1.” for “1. Again,”, “and” for “either in-furrow or”, “The untreated seed—with and without tefluthrin banding—and the treated seed were planted in three different soil types. […] The” for “The”
as §2

CC1(C)[C@H](C(=O)O[C@H](C#N)c2cccc(Oc3ccccc3)c2)[C@@H]1/C=C\C(=O)OC(C(F)(F)F)C(F)(F)F [Acrinathrin, (S)-alpha-cyano-3-phenoxybenzyl(Z)-(IR-cis)-2,2-dimethyl-3-[2-(2,2,2-trifluoro-trifluoromethyl-ethoxycarbonyl)vinyl]cyclopropane carboxylate]
Vapor pressure ([1]; temperature not given): 4.4 E-5 mPa

CC(C)[C@H](C(=O)O[C@H](C#N)c1cccc(Oc2ccccc2)c1)c1ccc(Cl)cc1 [Esfenvalerate, (S)-cyano (3-phenoxyphenyl) methyl (S)-4-chloro-alpha-(1-methylethyl)benzeneacetate]
Vapor pressure ([1]; temperature not given): 2 E-4 mPa
Water solubility ([2]; temperature not given): 0.002 mg/L

CC1(C)C(/C=C(\Cl)C(F)(F)F)C1C(=O)OC(C#N)c1cccc(Oc2ccccc2)c1 (racemic) [Cyhalothrin, [1α, 3α(Z)]-(±)-cyano-(3-phenoxyphenyl)methyl 3-(2-chloro-3,3,3-trifluoro-1-propenyl)-2,2-cimethylcyclopropanecarboxylate]
Vapor pressure ([1]; temperature not given): 0.001 mPa
Water solubility ([2]; 20° C.): 0.004 ppb (20° C.)

CC1(C)[C@H](C=C(Cl)Cl)[C@H]1C(=O)O[C@H](C#N)c1cccc(Oc2ccccc2)c1 [Theta cypermethrin]
Vapor pressure ([1]; temperature not given): 1.8 E-4 mPa

CC1(C)[C@H](C(=O)O[C@H](C#N)c2cccc(Oc3ccccc3)c2)[C@@H]1/C=C(\Cl)C(F)(F)F [Lambda cyhalothrin, [1 alpha (s), 3 alpha(z)]-cyano(3-phenoxyphenyl)methyl-3-(2-chloro-3,3,3-trifluoro-1-propenyl)-2,2-dimethylcyclopropane carboxylate]
Vapor pressure ([1]; temperature not given): 2 E-4 mPa
STAND REDUCTION (%, 10 days after infestation) ([3]; seed treatment 88 gm AI/100 kg of seed): 19.4%
STAND REDUCTION (%, 10 days after infestation) ([3]; seed treatment 381 gm AI/100 kg of seed): total protection
STAND REDUCTION (%, 10 days after infestation) ([4]; SOIL TYPE I): 80.1%
STAND REDUCTION (%, 10 days after infestation) ([4]; SOIL TYPE II): 39.8%
STAND REDUCTION (%, 10 days after infestation) ([4]; SOIL TYPE III): 72.4%

CC(C)=CC1C(C(=O)OCc2cccc(Oc3ccccc3)c2)C1(C)C (stereo not drawn) [Phenothrin, 3-phenoxybenzyl-d,l-cistrans 2,2-dimethyl-3-(2-methylpropenyl)cyclopropane carboxylate]
Vapor pressure ([1]; 21.4° C.): 1.9 E-2 mPa
Water solubility ([2]; 25° C.): <9.7 μg/l (25° C.)

CC(C)[C@H](C(=O)OC(C#N)c1cccc(Oc2ccccc2)c1)c1ccc(OC(F)F)cc1 (mixture of isomers) [Flucythrinate, (±)-cyano (3-phenoxyphenyl)methyl (±)-4-(difluoromethoxy)-alpha-(1-methylethyl) benzeneacetate]
Vapor pressure ([1]; 25° C.): 0.0012 mPa
Water solubility ([2]; 21° C.): 0.5 mg/l (21° C.)

CCOc1ccc(C2(C(=O)OC(C#N)c3cccc(Oc4ccccc4)c3)CC2(Cl)Cl)cc1 (stereo not shown) [Cycloprothrin, cyano-(3-phenoxyphenyl)methyl 2,2-dichloro-1-(4-ethoxyphenyl)cyclopropane carboxylate]
Vapor pressure ([1]; 20° C.): 2.13 E-3 mPa
Water solubility ([2]; 25° C.): 0.091 mg/l (25° C.)

CC1(C)C(C=C(Cl)Cl)C1C(=O)OC(C#N)c1cccc(Oc2ccccc2)c1 (stereo not drawn) [Alpha cypermethrin, (IR cis) S and (IS cis) R enantiomer isomer pair of alpha-cyano-3-phenoxybenzyl-3-(2,2dichlorovinyl)-2,2-dimethylcyclopropane carboxylate]
Vapor pressure ([1]; temperature not given): 2.3 E-2 mPa

CC1(C)C(C=C(Cl)Cl)C1C(=O)OC(C#N)c1cccc(Oc2ccccc2)c1 (racemic) [Cypermethrin, (±) alpha-cyano-(3-phenoxyphenyl)methyl(+)-cis,trans-3-(2,2-dichloroethenyl)-2,2-dimethyl-cyclopropane carboxylate]
Vapor pressure ([1]; temperature not given): 2.3 E-4 mPa

CC(C)=CC1C(C(=O)OC(C#N)c2cccc(Oc3ccccc3)c2)C1(C)C (stereo not shown) [Cyphenothrin]
Vapor pressure ([1]; 20° C.): 0.12 mPa
Water solubility ([2]; 25° C.): <10 μg/l (25° C.)

C#CCC1=C(C)C(OC(=O)C2C(C=C(C)C)C2(C)C)CC1=O (stereo not shown) [Prallethrin]
Vapor pressure ([1]; 23.1° C.): <0.013 mPa

CC(C)[C@@H](Nc1ccc(C(F)(F)F)cc1Cl)C(=O)OC(C#N)c1cccc(Oc2ccccc2)c1 (mixture of isomers) [Tau-fluvalinate, (RS)-alpha-cyano-3-phenoxybenzyl(R)-2-[2-chloro-4-(trifluoromethyl)anilino]-3-methylbutanoate]
Vapor pressure ([1]; temperature not given): 9 E-8 mPa
Water solubility ([2]; 20° C.): 1.03 ppb (20° C.)

C#CCN1CC(=O)N(COC(=O)[C@@H]2C(C=C(C)C)C2(C)C)C1=O (mixture of isomers) [Imiprothrin]
Vapor pressure ([1]; 25° C.): 1.8 E-3 mPa

CC(C)C(C(=O)OC(C#N)c1cccc(Oc2ccc(Br)cc2)c1)c1ccc(OC(F)F)cc1 (stereo not shown) [ZXI8901]
Vapor pressure ([1]; 20° C.): 1.6 E-4 mPa

CC(C)=C[C@@H]1[C@@H](C(=O)OCc2coc(Cc3ccccc3)c2)C1(C)C [Bioresmethrin, (1R-trans)-[5-(phenylmethyl)-3-furanyl]methyl 2,2-dimethyl-3-(2-methyl-1-propenyl)cyclopropanecarboxylate]
Vapor pressure ([1]; (Tech.)): 18.6 mPa
Vapor pressure ([1]; (d-resmethrin)): 0.45 mPa
Water solubility ([2]; temperature not given): <0.3 mg/L

CC1(C)C(C=C(Cl)Cl)C1C(=O)OC(C#N)c1ccc(F)c(Oc2ccccc2)c1 (stereo not drawn) [Beta cyfluthrin]
Vapor pressure ([1]; no unit, temperature not given): 1.4 to 8.5 E-5
Water solubility ([2]; 25° C.): 1.2-2.1 μg/l (25° C.)

CC1(C)[C@H](C=C(Cl)Cl)[C@H]1C(=O)O[C@@H](C#N)c1cccc(Oc2ccccc2)c1 [Beta-cypermethrin]
Vapor pressure ([1]; temperature not given): 1.8 E-4 mPa

CC1(C)C(C(=O)OC(C#N)c2cccc(Oc3ccccc3)c2)C1(C)C (stereo not drawn) [Fenpropathrin, alpha-cyano-3-phenoxybenzyl 2,2,3,3,-tetramethyl cyclopropoanecarboxylate]
Vapor pressure ([1]; temperature not given): 0.73 mPa
Water solubility ([2]; 25° C.): 14.1 μg/l (25° C.)

C=CCC1=C(C)C(OC(=O)C2C(C=C(C)C)C2(C)C)CC1=O [Allethrin, (RS)-3-allyl-2-methyl-4-oxcyclopent-2-enyl-(1A,3R; 1R,3S)-2,2-dimethyl-3-(2-methylprop-1-enyl)cyclopropane carboxylate]
Vapor pressure ([1]; 21° C.): 0.16 mPa
Water solubility ([2]; in words): practically insol.

CC1(C)C(C=C(Cl)Cl)C1C(=O)OC(C#N)c1ccc(F)c(Oc2ccccc2)c1 (stereo not shown) [Cyfluthrin, cyano(4-fluoro-3-phenoxyphenyl)methyl 3-(2,2-dichloroethenyl)-2,2-dimethyl-cyclopropanedarboxylate]
Water solubility ([2]; 25° C.): 2-4.3 μg/l (25° C.)

C#CC(OC(=O)C1C(C=C(C)C)C1(C)C)/C(C)=C/CC (stereo not shown) [Empenthrin]
Vapor pressure ([1]; 23.6° C.): 14 mPa

CC1(C)C(C=C(Cl)Cl)C1C(=O)OCc1cccc(Oc2ccccc2)c1 (stereo not drawn) [Permethrin, (3-phenoxyphenyl)-methyl(+)cis-trans-3-(2,2-dichoroethenyl)-2,2-dimethylcyclopropanecarboxylate]
Vapor pressure ([1]; temperature not given): 0.07 mPa

CC(C)=CC1C(C(=O)OCN2C(=O)C3=C(CCCC3)C2=O)C1(C)C (stereo not drawn) [Tetramethrin, 3,4,5,6-tetra hydro-phthalimidomethyl-(IRS)-cis-trans-chrysanthemate]
Vapor pressure ([1]; 30° C.): 0.944 mPa

C=CCC1=C(C)C(OC(=O)[C@@H]2[C@@H](C=C(C)C)C2(C)C)CC1=O (stereo partly shown) [Bioallethrin]
Vapor pressure ([1]; 25° C.): 43.9 mPa
Water solubility ([2]; temperature not given): 4.6 mg/L

CC1(C)C(C=C(Cl)Cl)C1C(=O)OC(C#N)c1cccc(Oc2ccccc2)c1 (racemic) [Zeta-cypermethrin, S-cyano (3-phenoxyphenyl)methyl (±) cis/trans 3-(2,2-dichloroethenyl) 2,2 dimethylcyclopropane carboxylate]
Vapor pressure ([1]; temperature not given): 2.5 E-4 mPa

CC1(C)[C@H](C(=O)O[C@H](C#N)c2cccc(Oc3ccccc3)c2)[C@@H]1C(Br)C(Br)(Br)Br (stereo partly shown) [Tralomethrin]
Vapor pressure ([1]; 25° C.): 4.6 E-6 mPa

CC1(C)[C@H](C=C(Cl)Cl)[C@H]1C(=O)OCc1c(F)c(F)cc(F)c1F [Transfluthrin]
Vapor pressure ([1]; temperature not given): 0.4 mPa

CC(C)C(C(=O)OC(C#N)c1cccc(Oc2ccccc2)c1)c1ccc(Cl)cc1 (stereo not drawn) [Fenvalerate, (s)-cyano(3-phenoxyphenyl)methyl 4-chloro alpha (1-methylethyl)benzeneacetate]
Vapor pressure ([1]; 20° C.): 1.92 E-2 mPa
Water solubility ([2]; temperature not given): <0.01 mg/L

CC1(C)[C@H](C(=O)O[C@H](C#N)c2cccc(Oc3ccccc3)c2)[C@@H]1C=C(Br)Br [Deltamethrin, (s)-alpha-cyano-3-phenoxybenzyl (IR,3R)-3-(2,2-dibromovinyl)-2,2-dimethyl cyclopropanecarboxylate]
Vapor pressure ([1]; temperature not given): 1.24 E-5 mPa

From patent publication US6713077B1, “Control of shoot/foliar feeding pests with pesticide seed treatments” (Monsanto Technology, LLC, priority 1999, dated 2004)
